Results as given in patent US8057806B2 (priority 2000, dated 2011).
“Also recorded” adds a separate entry of the source.

Test system: M2 mutant viruses
Assay type: cell-based, influenza A virus

In the case of `NC12CC3CC(CC(C3)C1)C2` [amantadine], the effect on replication is reported as “either not affected or inhibited only slightly; also recorded: Substantial inhibition”.
